In patent US10214531B2 (Institute for Drug Discovery, LLC, priority 2013, dated 2019) one finds IC50 data, which are given here for 39 molecules.

Structures can show the parent of a compound that is named as a salt.

Chain of recombinant human AMCase (Q9BZP6 22-476): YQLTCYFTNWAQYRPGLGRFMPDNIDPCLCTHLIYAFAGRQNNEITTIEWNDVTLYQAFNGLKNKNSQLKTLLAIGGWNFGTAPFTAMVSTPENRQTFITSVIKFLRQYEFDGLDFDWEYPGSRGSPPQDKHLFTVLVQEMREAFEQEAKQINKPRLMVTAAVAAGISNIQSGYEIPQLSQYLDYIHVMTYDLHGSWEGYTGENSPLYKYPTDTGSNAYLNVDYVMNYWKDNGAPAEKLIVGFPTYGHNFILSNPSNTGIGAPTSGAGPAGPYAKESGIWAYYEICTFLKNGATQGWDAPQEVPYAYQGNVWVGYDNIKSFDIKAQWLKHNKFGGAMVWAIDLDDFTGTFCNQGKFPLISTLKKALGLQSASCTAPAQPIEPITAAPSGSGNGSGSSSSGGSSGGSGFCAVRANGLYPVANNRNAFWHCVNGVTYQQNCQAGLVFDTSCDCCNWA

This assay deals with recombinant human AMCase (Homo sapiens, UniProt Q9BZP6). Nature of the assay: Human AMCase Activity Assay. Particulars: recombinant hAMCase, 4-methylumbelliferyl chitobioside substrate, citrate buffer pH 5.2, 37° C., 60 minutes; read-out: Activity (IC50 value key). The format is biochemical. As for the experimental part:
Human AMCase Activity Assay
The assay was run in the 96-well plate format, each reaction in the total volume of 100 μl. 4-Methylumbelliferyl B-D-N,N′ diacetylchitobioside hydrate was used as a substrate for the enzyme. Upon hydrolysis by AMCase, the substrate releases 4-methylumbelliferyl (4MU), when ionized in basic pH, emits fluorescence of 460 nm.
Briefly, 40 μl of a substrate was added to each well, followed by 10 μl of compound dilution and 50 μl of hAMCase recombinant enzyme solution. The reaction was carried out in citrate buffer, pH 5.2, in the dark, at 37° C. for 60 minutes with shaking.
Consider `CC1CN(c2nc(N)n[nH]2)CCC1NCCc1ccc(Cl)cc1` (mixture of isomers) [Example 132, 1-(3-amino-1H-1,2,4-triazol-5-yl)-N-(4-chlorophenethyl)-3-methylpiperidin-4-amine dihydrochloride (4:1 diastereoisomeric mixture)], for which the IC50 – broadly, the concentration at which inhibition is half-maximal – was 0.1 to 1 µM.

Regarding `CCCC1CN(c2nc(N)n[nH]2)CCC1NCCc1ccc(Cl)cc1` (single isomer, unassigned) [Example 231, 1-(3-amino-1H-1,2,4-triazol-5-yl)-N-(4-chlorophenethyl)-3-propylpiperidin-4-amine], the IC50 was 0.1 to 1 µM.

As for `CCCC1CN(c2nc(N)n[nH]2)CCC1NCCc1ccc(Cl)cc1` (single isomer, unassigned) [Example 234, 1-(3-amino-1H-1,2,4-triazol-5-yl)-N-(4-chlorophenethyl)-3-propylpiperidin-4-amine], the IC50 fell in the range of 0.1 to 1 µM.

Turning to `Nc1n[nH]c(N2CCN(CCOc3ccc(F)cc3)CC2)n1` [Example 1, 5-(4-(2-(4-fluorophenoxy)ethyl)piperazin-1-yl)-1H-1,2,4-triazol-3-amine], the IC50 was above 100 µM.

`Nc1n[nH]c(N2CCN(CCOc3ccc(Cl)cc3)CC2)n1` [Example 2, 5-(4-(2-(4-chlorophenoxy)ethyl)piperazin-1-yl)-1H-1,2,4-triazol-3-amine]: the IC50 is 1 to 10 µM.

`CCOc1ccc(CN2CCN(c3nc(N)n[nH]3)CC2)cc1` [Example 3, 5-(4-(4-ethoxybenzyl)piperazin-1-yl)-1H-1,2,4-triazol-3-amine]: the IC50 was above 100 µM.

Consider `CCC(Oc1ccc(Br)cc1)C(=O)N1CCN(c2nc(N)n[nH]2)CC1` (stereo not drawn) [Example 5, 1-[4-(3-amino-1H-1,2,4-triazol-5-yl)piperazin-1-yl]-2-(4-bromophenoxy)butan-1-one], for which the IC50 is above 100 µM.

With `C[C@@H](Oc1ccc(Br)cc1)C(=O)N1CCN(c2nc(N)n[nH]2)CC1` [Example 6, (R)-1-(4-(3-amino-1H-1,2,4-triazol-5-yl)piperazin-1-yl)-2-(4-bromophenoxy)propan-1-one], the IC50 was above 100 µM.

Consider `C[C@H](Oc1ccc(Br)cc1)C(=O)N1CCN(c2nc(N)n[nH]2)CC1` [Example 7, (S)-1-(4-(3-amino-1H-1,2,4-triazol-5-yl)piperazin-1-yl)-2-(4-bromophenoxy)-propan-1-one], for which the IC50 is above 100 µM.

In the case of `CCC(Oc1ccc(Cl)cc1)C(=O)N1CCN(c2nc(N)n[nH]2)CC1` (stereo not drawn) [Example 8, 1-(4-(3-amino-1H-1,2,4-triazol-5-yl)piperazin-1-yl)-2-(4-chlorophenoxy)-butan-1-one], the IC50 was above 100 µM.

Regarding `C[C@@H](Oc1ccc(Cl)cc1)C(=O)N1CCN(c2nc(N)n[nH]2)CC1` [Example 9, (R)-1-(4-(3-amino-1H-1,2,4-triazol-5-yl)piperazin-1-yl)-2-(4-chlorophenoxy)-propan-1-one], the IC50 is above 100 µM.

As to `C[C@H](Oc1ccc(Cl)cc1)C(=O)N1CCN(c2nc(N)n[nH]2)CC1` [Example 10, (S)-1-(4-(3-amino-1H-1,2,4-triazol-5-yl)piperazin-1-yl)-2-(4-chlorophenoxy)propan-1-one], the IC50 was above 100 µM.

`Nc1n[nH]c(N2CCC(CNS(=O)(=O)c3ccc(Br)cc3)CC2)n1` [Example 12, N-((1-(3-amino-1H-1,2,4-triazol-5-yl)piperidin-4-yl)methyl)-4-bromobenzenesulfonamide]: the IC50 was above 100 µM.

As to `Nc1n[nH]c(N2CCC(NS(=O)(=O)Cc3ccc(Cl)cc3)CC2)n1` [Example 14, N-(1-(3-amino-1H-1,2,4-triazol-5-yl)piperidin-4-yl)-1-(4-chlorophenyl)methanesulfonamide dihydrochloride], the IC50 lay in the range of 1 to 10 µM.

As for `Nc1n[nH]c(N2CCC(NS(=O)(=O)Cc3ccc(Cl)c(Cl)c3)CC2)n1` [Example 15, N-(1-(3-amino-1H-1,2,4-triazol-5-yl)piperidin-4-yl)-1-(3,4-dichlorophenyl)methanesulfonamide], the IC50 lay in the range of 10 to 100 µM.

For `Nc1n[nH]c(N2CCC(C(=O)NCc3ccc(Cl)c(Cl)c3)CC2)n1` [Example 17, 1-(3-amino-1H-1,2,4-triazol-5-yl)-N-(3,4-dichlorobenzyl)piperidine-4-carboxamide], the IC50 was above 100 µM.

For the molecule `CC(CCc1ccc(Br)cc1)N1CCN(c2nc(N)n[nH]2)CC1` (stereo not drawn) [Example 19, 5-(4-(4-(4-bromophenyl)butan-2-yl)piperazin-1-yl)-1H-1,2,4-triazol-3-amine], the IC50 fell in the range of 10 to 100 µM.

For the molecule `CC(CN1CCN(c2nc(N)n[nH]2)CC1)Oc1ccc(Br)cc1` (stereo not drawn) [Example 20-1, 5-(4-(2-(4-bromophenoxy)propyl)piperazin-1-yl)-1H-1,2,4-triazol-3-amine], the IC50 was 10 to 100 µM.

`CC(COc1ccc(Br)cc1)N1CCN(c2nc(N)n[nH]2)CC1` (stereo not drawn) [Example 20-2, 5-(4-(1-(4-bromophenoxy)propan-2-yl)piperazin-1-yl)-1H-1,2,4-triazol-3-amine]: the IC50 was in the range of 10 to 100 µM.

Turning to `Nc1n[nH]c(N2CCC(NCCc3ccc(Br)cc3)CC2)n1` [Example 22, 1-(3-amino-1H-1,2,4-triazol-5-yl)-N-(4-bromophenethyl)piperidin-4-amine], the IC50 fell in the range of 1 to 10 µM.

Consider `Nc1n[nH]c(N2CCN(CCOc3ccc(Cl)c4ccccc34)CC2)n1` [Example 23, 5-(4-(2-((4-chloronaphthalen-1-yl)oxy)ethyl)piperazin-1-yl)-1H-1,2,4-triazol-3-amine], for which the IC50 lay in the range of 1 to 10 µM.

For `Nc1n[nH]c(N2CCN(C(=O)COc3ccc(Cl)cc3)CC2)n1` [Example 24, 1-(4-(3-amino-1H-1,2,4-triazol-5-yl)piperazin-1-yl)-2-(4-chlorophenoxy)-ethanone], the IC50 is above 100 µM.

Turning to `Nc1n[nH]c(N2CCN(C(=O)COc3ccc4ccccc4c3)CC2)n1` [Example 25, 1-(4-(3-amino-1H-1,2,4-triazol-5-yl)piperazin-1-yl)-2-(naphthalen-2-yloxy) ethanone], the IC50 is above 100 µM.

In the case of `CC1CN(c2nc(N)n[nH]2)CCN1CCOc1ccc(Br)cc1` (stereo not drawn) [Example 26, 5-(4-(2-(4-bromophenoxy)ethyl)-3-methylpiperazin-1-yl)-1H-1,2,4-triazol-3-amine], the IC50 is 1 to 10 µM.

With `Cn1nc(N2CCN(CCOc3ccc(Br)cc3)CC2)nc1N` [Example 27-1, 3-(4-(2-(4-bromophenoxy)ethyl)piperazin-1-yl)-1-methyl-1H-1,2,4-triazol-5-amine], the IC50 was above 100 µM.

On to `Cn1nc(N)nc1N1CCN(CCOc2ccc(Br)cc2)CC1` [Example 27-2, 5-(4-(2-(4-bromophenoxy)ethyl)piperazin-1-yl)-1-methyl-1H-1,2,4-triazol-3-amine], for which the IC50 was above 100 µM.

In the case of `Nc1n[nH]c(N2CCCN(CCOc3ccc(Br)cc3)CC2)n1` [Example 28, 5-{4-[2-(4-bromophenoxy)ethyl]-[1,4]-diazepan-1-yl}-1H-1,2,4-triazol-3-amine], the IC50 is above 100 µM.

For `Nc1n[nH]c(N2CC3CN(CCOc4ccc(Br)cc4)CC3C2)n1` (stereo not drawn) [Example 29, 5-(5-(2-(4-bromophenoxy)ethyl)hexahydropyrrolo[3,4-c]pyrrol-2(1H)-yl)-1H-1,2,4-triazol-3-amine], the IC50 was above 100 µM.

As to `Nc1n[nH]c(N2CCN(C(=O)COc3ccccc3)CC2)n1` [Example 30, 1-(4-(3-amino-1H-1,2,4-triazol-5-yl)piperazin-1-yl)-2-phenoxyethanone], the IC50 is above 100 µM.

Regarding `CCc1ccc(OC(C)C(=O)N2CCN(c3nc(N)n[nH]3)CC2)cc1` (stereo not drawn) [Example 31, 1-(4-(3-amino-1H-1,2,4-triazol-5-yl)piperazin-1-yl)-2-(4-ethylphenoxy)propan-1-one], the concentration for half-maximal inhibition (IC50) was above 100 µM.

As for `Cc1ccccc1OC(C)C(=O)N1CCN(c2nc(N)n[nH]2)CC1` (stereo not drawn) [Example 32, 1-(4-(3-amino-1H-1,2,4-triazol-5-yl)piperazin-1-yl)-2-(o-tolyloxy)propan-1-one], the IC50 is above 100 µM.

As for `CCc1ccccc1OC(C)C(=O)N1CCN(c2nc(N)n[nH]2)CC1` (stereo not drawn) [Example 33, 1-(4-(3-amino-1H-1,2,4-triazol-5-yl)piperazin-1-yl)-2-(2-ethylphenoxy)propan-1-one], the IC50 was above 100 µM.

Regarding `Cc1ccc(C)c(OC(C)C(=O)N2CCN(c3nc(N)n[nH]3)CC2)c1` (stereo not drawn) [Example 34, 1-(4-(3-amino-1H-1,2,4-triazol-5-yl)piperazin-1-yl)-2-(2,5-dimethylphenoxy)propan-1-one], the IC50 is above 100 µM.

As to `Cc1ccc(OC(C)C(=O)N2CCN(c3nc(N)n[nH]3)CC2)c(C)c1` (stereo not drawn) [Example 35, 1-(4-(3-amino-1H-1,2,4-triazol-5-yl)piperazin-1-yl)-2-(2,4-dimethylphenoxy)propan-1-one], the 50% inhibitory concentration (IC50) is above 100 µM.

On to `Cc1cccc(OC(C)C(=O)N2CCN(c3nc(N)n[nH]3)CC2)c1` (stereo not drawn) [Example 36, 1-(4-(3-amino-1H-1,2,4-triazol-5-yl)piperazin-1-yl)-2-(m-tolyloxy)propan-1-one], for which the IC50 was above 100 µM.

Turning to `CC(Oc1cccc(F)c1F)C(=O)N1CCN(c2nc(N)n[nH]2)CC1` (stereo not drawn) [Example 37, 1-(4-(3-amino-1H-1,2,4-triazol-5-yl)piperazin-1-yl)-2-(2,3-difluorophenoxy)propan-1-one], the IC50 was above 100 µM.

As to `Nc1n[nH]c(N2CCNCC2)n1` [Example 38, 5-(piperazin-1-yl)-1H-1,2,4-triazol-3-amine trihydrochloride], the IC50 was above 100 µM.

For `CC(Cc1ccc(Br)cc1)CN1CCN(c2nc(N)n[nH]2)CC1` (stereo not drawn) [Example 39, 5-(4-(3-(4-bromophenyl)-2-methylpropyl)piperazin-1-yl)-1H-1,2,4-triazol-3-amine dihydrochloride], the IC50 lay in the range of 1 to 10 µM.

Consider `Nc1n[nH]c(N2CCN(C(=O)CC(N)c3ccc(Cl)cc3)CC2)n1` (stereo not drawn) [Example 40, 3-amino-1-(4-(3-amino-1H-1,2,4-triazol-5-yl)piperazin-1-yl)-3-(4-chlorophenyl)propan-1-one], for which the IC50 was above 100 µM.
